Columns and labels:
Assay type in all cases: in vivo
[1] = system: ryegrass, Italian (italian ryegrass, Lolium multiflorum); assay: Test A preemergence soil spray, visual injury rating 0-100; details: 10 days
Summary of the method: (§1)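 Visual injury ratings (0, no effect; 100, complete control) were assigned relative to untreated plants 10 days after treatment. Test chemicals, formulated with a surfactant-containing non-phytotoxic solvent, were applied in loam-sand soil either as a directed soil spray before emergence or to emerged plants, and plants were kept in a greenhouse.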

[2] = system: green foxtail (Setaria viridis); assay: as above; details: 10 days
Summary of the method: as §1

[3] = system: blackgrass (Alopecurus myosuroides); assay: as above; details: 10 days
Summary of the method: as §1

[4] = system: soybean (Glycine max); assay: as above; details: 10 days
Summary of the method: as §1

[5] = system: barnyardgrass (Echinochloa crus-galli); assay: as above; details: 10 days
Summary of the method: as §1

[6] = system: corn (Zea mays); assay: as above; details: 10 days
Summary of the method: as §1

[7] = system: kochia (Bassia scoparia); assay: as above; details: 10 days
Summary of the method: as §1

[8] = system: wheat (Triticum aestivum); assay: as above; details: 10 days
Summary of the method: as §1

[9] = system: ragweed (common ragweed, Ambrosia artemisiifolia); assay: as above; details: 10 days
Summary of the method: as §1

[10] = system: oat, wild (wild oat, Avena fatua); assay: as above; details: 10 days
Summary of the method: as §1

[11] = system: ryegrass, Italian (italian ryegrass, Lolium multiflorum); assay: Test A postemergence application, visual injury rating 0-100
Summary of the method: as §1

[12] = system: horseweed (Erigeron canadensis); assay: as above
Summary of the method: as §1

[13] = system: palmer (palmer amaranth, palmer pigweed, Amaranthus palmeri); assay: as above
Summary of the method: as §1

[14] = system: green foxtail (Setaria viridis); assay: as above
Summary of the method: as §1

[15] = system: blackgrass (Alopecurus myosuroides); assay: as above
Summary of the method: as §1

[16] = system: soybean (Glycine max); assay: as above
Summary of the method: as §1

[17] = system: barnyardgrass (Echinochloa crus-galli); assay: as above
Summary of the method: as §1

[18] = system: corn (Zea mays); assay: as above
Summary of the method: as §1

[19] = system: kochia (Bassia scoparia); assay: as above
Summary of the method: as §1

[20] = system: wheat (Triticum aestivum); assay: as above
Summary of the method: as §1

[21] = system: galium (catchweed bedstraw, Galium aparine); assay: as above
Summary of the method: as §1

[22] = system: ragweed (common ragweed, Ambrosia artemisiifolia); assay: as above
Summary of the method: as §1

[23] = system: oat, wild (wild oat, Avena fatua); assay: as above
Summary of the method: as §1

[24] = system: barnyardgrass (Echinochloa crusgalli); assay: Test B flooded paddy test, visual plant response rating 0-100; details: 250 g ai/ha, Flood, applied to paddy water, evaluated after 13 days
Summary of the method: (§2)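 Plants were grown to the 2-leaf stage, then pots were flooded to 3 cm above the soil and test compounds were applied directly into the paddy water. Water depth was held there throughout; after 13 days in a greenhouse, injury was scored visually against untreated controls.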

[25] = system: rice (Oryza sativa); assay: as above; details: 250 g ai/ha, Flood, applied to paddy water, evaluated after 13 days
Summary of the method: as §2

[26] = system: ducksalad (Heteranthera limosa); assay: as above; details: 250 g ai/ha, Flood, applied to paddy water, evaluated after 13 days
Summary of the method: as §2

[27] = system: sedge, umbrella (small-flower umbrella sedge, Cyperus difformis); assay: as above; details: 250 g ai/ha, Flood, applied to paddy water, evaluated after 13 days
Summary of the method: as §2

[28] = 62 g ai/ha, 0 = no effect, 100 = complete control
[29] = 62 g ai/ha, postemergence, 10 days, 0 = no effect, 100 = complete control
[30] = Postemergence, 16 g ai/ha, greenhouse 10 days, 0 no effect, 100 complete control

CC1(C(=O)NC2CC=C(C(=O)OCC(F)(F)F)C2)CN(c2cc(F)cc(Cl)c2)C(=O)O1 (centres unmarked) [Compound 141]
Ryegrass, Italian plant response rating ([1]; 16 g ai/ha, 0 to 100 scale): 50
Ryegrass, Italian plant response rating (0-100) [1, 28]: 90
Foxtail, Green plant response rating ([2]; 16 g ai/ha, 0 to 100 scale): 20
Foxtail, Green plant response rating (0-100) [2, 28]: 90
Blackgrass plant response rating ([3]; 16 g ai/ha, 0 to 100 scale): 0
Blackgrass plant response rating (0-100) [3, 28]: 80
Soybean plant response rating ([4]; 16 g ai/ha, 0 to 100 scale): 0
Soybean plant response rating (0-100) [4, 28]: 70
Barnyardgrass plant response rating ([5]; 16 g ai/ha, 0 to 100 scale): 0
Barnyardgrass plant response rating (0-100) [5, 28]: 70
Corn plant response rating ([6]; 16 g ai/ha, 0 to 100 scale): 10
Corn plant response rating (0-100) [6, 28]: 70
Kochia plant response rating ([7]; 16 g ai/ha, 0 to 100 scale): 0
Kochia plant response rating (0-100) [7, 28]: 80
Wheat plant response rating ([8]; 16 g ai/ha, 0 to 100 scale): 80
Wheat plant response rating (0-100) [8, 28]: 90
Ragweed plant response rating ([9]; 16 g ai/ha, 0 to 100 scale): 0
Ragweed plant response rating (0-100) [9, 28]: 0
Oat, Wild plant response rating ([10]; 16 g ai/ha, 0 to 100 scale): 0
Oat, Wild plant response rating (0-100) [10, 28]: 40
Ryegrass, Italian plant response rating (0-100) [11, 29]: 80
Ryegrass, Italian plant response rating (0 to 100 scale) [11, 30]: 20
Horseweed plant response rating (0-100) [12, 29]: 80
Horseweed plant response rating (0 to 100 scale) [12, 30]: 60
Pigweed, Palmer plant response rating (0-100) [13, 29]: 90
Pigweed, Palmer plant response rating (0 to 100 scale) [13, 30]: 70
Foxtail, Green plant response rating (0-100) [14, 29]: 90
Foxtail, Green plant response rating (0 to 100 scale) [14, 30]: 90
Blackgrass plant response rating (0-100) [15, 29]: 90
Blackgrass plant response rating (0 to 100 scale) [15, 30]: 90
Soybean plant response rating (0-100) [16, 29]: 70
Soybean plant response rating (0 to 100 scale) [16, 30]: 70
Barnyardgrass plant response rating (0-100) [17, 29]: 100
Barnyardgrass plant response rating (0 to 100 scale) [17, 30]: 100
Corn plant response rating (0-100) [18, 29]: 100
Corn plant response rating (0 to 100 scale) [18, 30]: 100
Kochia plant response rating (0-100) [19, 29]: 90
Kochia plant response rating (0 to 100 scale) [19, 30]: 70
Wheat plant response rating (0-100) [20, 29]: 90
Wheat plant response rating (0 to 100 scale) [20, 30]: 90
Galium plant response rating (0-100) [21, 29]: 80
Galium plant response rating (0 to 100 scale) [21, 30]: 80
Ragweed plant response rating (0-100) [22, 29]: 60
Ragweed plant response rating (0 to 100 scale) [22, 30]: 30
Oat, Wild plant response rating (0-100) [23, 29]: 80
Oat, Wild plant response rating (0 to 100 scale) [23, 30]: 20
Plant response rating, Barnyardgrass (0 to 100 scale, 0 is no effect and 100 is complete control) [24]: 90
Plant response rating, Rice (0 to 100 scale, 0 is no effect and 100 is complete control) [25]: 50
Plant response rating, Ducksalad (0 to 100 scale, 0 is no effect and 100 is complete control) [26]: 65
Plant response rating, Sedge, Umbrella (0 to 100 scale, 0 is no effect and 100 is complete control) [27]: 85

Source: patent US20260285850A1, “SUBSTITUTED OXAZOLIDINONES AND IMIDAZOLINONES AS HERBICIDES” (FMC CORPORATION, priority 2023, published 2026)
